“Also recorded” adds a separate entry of the source.
Legend:
[1] = biological target: T1, WDR5 (Homo sapiens, UniProt P61964); experiment: Western blot of WDR5 protein levels in MIAPACA2 cells; type: cell-based; design: After WDR5 degrader treatment, cells were collected and lysed; endogenous in cells; host or cells: MV4;11 and/or MIAPACA2; conditions: 18 h
Experimental: MIAPACA2 cells were treated with DMSO or indicated compounds at 0.1 μM, 0.5 μM, 1 μM, 5 μM, and 10 μM for 18 hours.
MIAPACA2 cells were treated with DMSO or indicated compounds at 0.5 μM and 1.0 μM for 18 hours.
MIAPACA2 cells were treated with DMSO or indicated compounds at 0.1 μM and 0.5 μM for 18 hours.
MIAPACA2 cells were treated with DMSO or indicated compounds at 0.5 μM and 1.0 μM or at 1.0 μM and 10 μM for 18 hours.
(§1) MIAPACA2 and Hela cells were cultured in DMEM supplemented with 10% FBS and 1% Penicillin/Streptomycin.
WDR5 degraders were dissolved in DMSO and DMSO with no degraders was used as the control. 1×10^6 MV4;11 cells or 1×10^5 MIAPACA2 or 2×10^5 Hela cells were seeded in 2 mL medium for each well in […].
For prescreening of all the compounds, each test compound was added to the medium at indicated concentrations. After 18 h treatment, cells were collected.
After WDR5 degrader treatment, cells were collected and lysed. Total cell lysates were used for western blot. The following primary antibodies were used: WDR5 (Santa Cruz), vinculin (Cell Signaling Technology), tubulin (Cell Signaling Technology), GAPDH (Santa Cruz). Blots were imaged using fluorescence-labeled secondary antibodies on ChemiDoc™ Imaging Systems.

[2] = biological target: T1, WDR5; experiment: Screening of putative WDR5 degraders by Western blot in MV4;11 and/or MIAPACA2 cells; type: cell-based; design: After WDR5 degrader treatment, cells were collected and lysed; endogenous in cells; host or cells: MV4;11 and/or MIAPACA2; conditions: summary of screening, FIGS. 6-10
Method in brief: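 MV4;11 (1×10^6/well) or MIAPACA2 (1×10^5/well) cells treated 18 h with compound at paired doses between 0.1 and 10 μM, DMSO as control. Total lysates immunoblotted for WDR5 with vinculin, tubulin or GAPDH loading controls; fluorescent secondary detection.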

[3] = biological target: T1, WDR5; conditions: MV4;11 cells, summary of FIGS. 1-3
Experimental: MV4;11 cells were treated with DMSO or indicated compounds at 1 μM and 10 μM for 18 hours.
MV4;11 cells were treated with DMSO or indicated compounds at 0.1 μM, 0.5 μM, 1 μM, 5 μM, and 10 μM for 18 hours.
MV4;11 cells were treated with DMSO or indicated compounds at a fixed concentration of 0.5 μM for 1, 2, 4, 8, 16, or 24 hours.
MV4;11 cells were treated with DMSO or indicated compounds at 0.1 μM and 0.5 μM for 18 hours. […] MV4;11 cells were treated with DMSO or indicated compounds at 0.1 μM and 1.0 μM for 18 hours.
WDR5 degraders were dissolved in DMSO and DMSO with no degraders was used as the control. 1×10^6 MV4;11 cells or 1×10^5 MIAPACA2 or 2×10^5 Hela cells were seeded in 2 mL medium for each well in 24-well plates.
And cells were collected at indicated timepoints: 1 h, 2 h, 4 h, 8 h, 16 h, and 24 h.

[4] = system: MIAPACA2 cells; experiment: MTT cell proliferation assay in MIAPACA2 cells; type: cell-based; conditions: 6 days, FIG. 11; for proliferation of MIAPACA2 cells: 0.01, 0.03, 0.1, 0.5, 1, 5 and 10 μM
Experimental: Assessment of the cell proliferation effects of WDR5 degraders XF056-132, XF056-173 and XF067-67 in MIAPACA2 cells (FIG. 11). MIAPACA2 cells were treated with DMSO or indicated compounds at 0.01 μM, 0.03 μM, 0.1 μM, 0.5 μM, 1 μM, 5 μM, and 10 μM for 6 days. MTT assay was used for detecting cell proliferation effects.
as §1

Structure (SMILES) | effective degradation of WDR5 in MV4;11 and/or MIAPACA2 cells [2] | proliferation of MIAPACA2 cells [4] | other results
CN1CCN(c2ccc(-c3cccc(CN4CCN(CCNC(=O)CCOCCOCCNc5cccc6c5C(=O)N(C5CCC(=O)NC5=O)C6=O)CC4)c3)cc2NC(=O)c2c[nH]c(=O)cc2C(F)(F)F)CC1 (centres unmarked) [XF048-142, N-(3′-((4-(2-(3-(2-(2-((2-(2,6-dioxopiperidin-3-yl)-1,3-dioxoisoindolin-4-yl)amino)ethoxy)ethoxy)propanamido)ethyl)piperazin-1-yl)methyl)-4-(4-methylpiperazin-1-yl)-[1,1′-biphenyl]-3-yl)-6-oxo-4-(trifluoromethyl)-1,6-dihydropyridine-3-carboxamide] | – | – | reduction of WDR5 protein levels in a concentration- and time-dependent manner [3]: effective in reducing WDR5 protein levels
CN1CCN(c2ccc(-c3cccc(CN4CCN(CCNC(=O)CCOCCOCCOCCOCCOCCNc5cccc6c5C(=O)N(C5CCC(=O)NC5=O)C6=O)CC4)c3)cc2NC(=O)c2c[nH]c(=O)cc2C(F)(F)F)CC1 (centres unmarked) [XF048-145, N-(3′-((4-(1-((2-(2,6-dioxopiperidin-3-yl)-1,3-dioxoisoindolin-4-yl)amino)-18-oxo-3,6,9,12,15-pentaoxa-19-azahenicosan-21-yl)piperazin-1-yl)methyl)-4-(4-methylpiperazin-1-yl)-[1,1′-biphenyl]-3-yl)-6-oxo-4-(trifluoromethyl)-1,6-dihydropyridine-3-carboxamide] | – | – | reduction of WDR5 protein levels in a concentration- and time-dependent manner [3]: effective in reducing WDR5 protein levels
Cc1ncsc1-c1ccc(CNC(=O)[C@@H]2C[C@@H](O)CN2C(=O)[C@@H](NC(=O)CNC(=O)c2ccc(F)c(-c3ccc(N4C[C@@H](C)N(C)[C@@H](C)C4)c(NC(=O)c4c[nH]c(=O)cc4C(F)(F)F)c3)c2)C(C)(C)C)cc1 [XF056-132, N-(2′-fluoro-5′-((2-(((S)-1-((2S,4R)-4-hydroxy-2-((4-(4-methylthiazol-5-yl)benzyl)carbamoyl)pyrrolidin-1-yl)-3,3-dimethyl-1-oxobutan-2-yl)amino)-2-oxoethyl)carbamoyl)-4-((3R,5S)-3,4,5-trimethylpiperazin-1-yl)-[1,1′-biphenyl]-3-yl)-6-oxo-4-(trifluoromethyl)-1,6-dihydropyridine-3-carboxamide] | able to effectively degrade WDR5 | significantly decreased the cell proliferation; also recorded: significantly reduced the proliferation of MIAPACA2 cells | degradation of WDR5 ([1]; MIAPACA2 cells, 0.1 μM and 0.5 μM, FIG. 8A-8C): can effectively degrade WDR5 at 0.1 μM and 0.5 μM
Cc1ncsc1-c1ccc([C@H](C)NC(=O)[C@@H]2C[C@@H](O)CN2C(=O)[C@@H](NC(=O)CNC(=O)c2ccc(F)c(-c3ccc(N4C[C@@H](C)N(C)[C@@H](C)C4)c(NC(=O)c4c[nH]c(=O)cc4C(F)(F)F)c3)c2)C(C)(C)C)cc1 [XF067-67, N-(2′-fluoro-5′-((2-(((S)-1-((2S,4R)-4-hydroxy-2-(((S)-1-(4-(4-methylthiazol-5-yl)phenyl)ethyl)carbamoyl)pyrrolidin-1-yl)-3,3-dimethyl-1-oxobutan-2-yl)amino)-2-oxoethyl)carbamoyl)-4-((3S,5R)-3,4,5-trimethylpiperazin-1-yl)-[1,1′-biphenyl]-3-yl)-6-oxo-4-(trifluoromethyl)-1,6-dihydropyridine-3-carboxamide] | – | significantly decreased the cell proliferation; also recorded: significantly reduced the proliferation of MIAPACA2 cells | cell killing effect, rank among the 3 compounds ([4]; MIAPACA2 cells): the best cell killing effect among the 3 compounds

More lines, main results first:

effective degradation of WDR5 in MV4;11 and/or MIAPACA2 cells [2] | Structure (SMILES) | proliferation of MIAPACA2 cells [4] | other results
able to effectively degrade WDR5 | CN1CCN(c2ccc(-c3cccc(CN4CCN(CCNC(=O)CCCCCCCNc5cccc6c5C(=O)N(C5CCC(=O)NC5=O)C6=O)CC4)c3)cc2NC(=O)c2c[nH]c(=O)cc2C(F)(F)F)CC1 (centres unmarked) [XF048-140, N-(3′-((4-(2-(8-((2-(2,6-dioxopiperidin-3-yl)-1,3-dioxoisoindolin-4-yl)amino)octanamido)ethyl)piperazin-1-yl)methyl)-4-(4-methylpiperazin-1-yl)-[1,1′-biphenyl]-3-yl)-6-oxo-4-(trifluoromethyl)-1,6-dihydropyridine-3-carboxamide] | – | reduction of WDR5 protein levels, concentration-dependent ([1]; MIAPACA2 cells, 0.1, 0.5, 1, 5 and 10 μM, FIG. 5): reduced WDR5 protein levels
able to effectively degrade WDR5 | Cc1ncsc1-c1ccc([C@H](C)NC(=O)[C@@H]2C[C@@H](O)CN2C(=O)[C@@H](NC(=O)CCCCCCCCCC(=O)NCCN2CCN(Cc3cccc(-c4ccc(N5CCN(C)CC5)c(NC(=O)c5c[nH]c(=O)cc5C(F)(F)F)c4)c3)CC2)C(C)(C)C)cc1 [XF050-166, N^1-((S)-1-((2S,4R)-4-hydroxy-2-(((S)-1-(4-(4-methylthiazol-5-yl)phenyl)ethyl)carbamoyl)pyrrolidin-1-yl)-3,3-dimethyl-1-oxobutan-2-yl)-N^11-(2-(4-((4′-(4-methylpiperazin-1-yl)-3′-(6-oxo-4-(trifluoromethyl)-1,6-dihydropyridine-3-carboxamido)-[1,1′-biphenyl]-3-yl)methyl)piperazin-1-yl)ethyl)undecanediamide] | – | WDR5 degradation effects ([1]; MIAPACA2 cells, 0.5 μM and 1.0 μM, FIG. 7): better WDR5 degradation effects than XF048-132 and XF048-140
able to effectively degrade WDR5 | Cc1ncsc1-c1ccc(CNC(=O)[C@@H]2C[C@@H](O)CN2C(=O)[C@@H](NC(=O)CCCCCCCCCNC(=O)c2ccc(-c3ccc(N4C[C@@H](C)N(C)[C@@H](C)C4)c(NC(=O)c4c[nH]c(=O)cc4C(F)(F)F)c3)c(F)c2)C(C)(C)C)cc1 [XF056-173, N-(2′-fluoro-4′-((10-(((S)-1-((2S,4R)-4-hydroxy-2-((4-(4-methylthiazol-5-yl)benzyl)carbamoyl)pyrrolidin-1-yl)-3,3-dimethyl-1-oxobutan-2-yl)amino)-10-oxodecyl)carbamoyl)-4-((3R,5S)-3,4,5-trimethylpiperazin-1-yl)-[1,1′-biphenyl]-3-yl)-6-oxo-4-(trifluoromethyl)-1,6-dihydropyridine-3-carboxamide] | significantly decreased the cell proliferation; also recorded: significantly reduced the proliferation of MIAPACA2 cells | –
able to effectively degrade WDR5 | C[C@@H]1CN(c2cc(F)c(C3=CCN(c4ncc(CN5CCN(C(=O)CCOCCOCCOCCOCCOCCNc6cccc7c6C(=O)N(C6CCC(=O)NC6=O)C7=O)CC5)cn4)CC3)cc2NC(=O)c2c[nH]c(=O)cc2C(F)(F)F)C[C@H](C)N1C (stereo partly drawn) [XF078-160, N-(5-(1-(5-((4-(1-((2-(2,6-dioxopiperidin-3-yl)-1,3-dioxoisoindolin-4-yl)amino)-3,6,9,12,15-pentaoxaoctadecan-18-oyl)piperazin-1-yl)methyl)pyrimidin-2-yl)-1,2,3,6-tetrahydropyridin-4-yl)-4-fluoro-2-((3S,5R)-3,4,5-trimethylpiperazin-1-yl)phenyl)-6-oxo-4-(trifluoromethyl)-1,6-dihydropyridine-3-carboxamide] | – | –

— US12110295B2, “WD40 repeat domain protein 5 (WDR5) degradation/disruption compounds and methods of use” (Icahn School of Medicine at Mount Sinai, priority 2018, dated 2024)
